Assay results as given in US12133856B2, “Multi-substituent psilocybin derivatives and methods of using” (Enveric Biosciences Canada Inc., priority 2021, dated 2024).
Read-outs that look alike come from different tables or passages of the source.

Experiments:
[1] = biological target: T1, 5-HT2A (Homo sapiens, UniProt P28223); conditions: cited from earlier work
[2] = biological target: T1, 5-HT2A; assay: Radioligand competition binding assay with [3H]ketanserin (scintillation proximity assay) on membranes containing 5-HT2A; design: purchased PerkinElmer ES-313-M400UA; conditions: for competition binding curve result at 5-HT2A receptor (binding / no binding): controls, FIG. 15C
Procedure: Ki values were calculated from the competition displacement data using the competitive binding analysis from GraphPad PRISM software.

[3] = biological target: T2, 5-HT1A receptor (Homo sapiens, UniProt P08908); assay: cAMP-Glo assay of 5-HT1A receptor modulation with 4 μM forskolin in CHO-K1/5-HT1A/Gα15 (+5-HT1A) versus CHO-K1/Gα15 (−5-HT1A) cells; format: cell-based; conditions: fixed 4 μM forskolin; cAMP relative (%) to ligand-free samples; decrease = 5-HT1A activity, no difference = no modulation
T2 construct: host or cells: CHO-K1 (co-expressing Gα15)
T2 sequence (P08908 1-422): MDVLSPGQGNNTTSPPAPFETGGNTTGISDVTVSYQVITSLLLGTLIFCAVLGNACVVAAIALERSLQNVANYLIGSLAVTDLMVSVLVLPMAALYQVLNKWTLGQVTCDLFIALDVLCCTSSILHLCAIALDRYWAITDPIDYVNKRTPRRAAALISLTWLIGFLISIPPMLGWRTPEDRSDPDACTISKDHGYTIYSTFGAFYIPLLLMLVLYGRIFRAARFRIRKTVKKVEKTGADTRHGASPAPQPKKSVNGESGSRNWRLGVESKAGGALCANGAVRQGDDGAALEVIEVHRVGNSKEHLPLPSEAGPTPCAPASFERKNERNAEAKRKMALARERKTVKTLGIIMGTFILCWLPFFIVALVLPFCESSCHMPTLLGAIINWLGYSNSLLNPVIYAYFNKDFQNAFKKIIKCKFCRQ
Description: CHO-K1/Gα15 (GenScript, M00257) (−5-HT1A) and CHO-K1/5-HT1A/Gα15 (GenScript, M00330) (+5-HT1A) cells lines were used. Briefly, CHO-K1/Gα15 is a control cell line that constitutively expresses Gα15 which is a promiscuous Gq protein. This control cell line lacks any transgene encoding 5-HT1A receptors, but still responds to forskolin; thus, cAMP response to forskolin should be the same regardless of whether or not 5-HT1A agonists are present. Conversely, CHO-K1/5-HT1A/Gα15 cells stably express 5-HT1A receptor in the CHO-K1 host background. […] In +5-HT1A cells, Gα15 may be recruited in place of Gαi/o, which could theoretically dampen cAMP response (Rojas and Fiedler 2016, Front Cell Neurosci 10: 272). […] In contrast, tryptophan is not known to activate, or modulate in any way, 5-HT1A receptors, and was thus used as a negative control. Cells were maintained in complete growth media as recommended by supplier (GenScript) which is constituted as follows: Ham's F12 Nutrient mix (HAM's F12, GIBCO #11765-047) with 10% fetal bovine serum (FBS) (Thermo Scientific #12483020), 200 μg/ml zeocin (Thermo Scientific #R25005) and/or 100 μg/ml hygromycin (Thermo Scientific #10687010). The cells were cultured in a humidified incubator with 37° C. and 5% CO2. Cells maintenance was carried out as recommended by the cell supplier. Briefly, vials with cells were removed from the liquid nitrogen and thawed quickly in 37° C. water bath. Just before the cells were completely thawed the vial's outside was decontaminated by 70% ethanol spray. The cell suspension was then retrieved from the vial and added to warm (37° C.) complete growth media, and centrifuged at 1,000 rpm for 5 minutes. The supernatant was discarded, and the cell pellet was then resuspended in another 10 ml of complete growth media, and added to the 10 cm cell culture dish (Greiner Bio-One #664160). The media was changed every third day until the cells were about 90% confluent. The ˜90% confluent cells were then split 10:1 for maintenance or used for experiment.
As 5-HT1A activation inhibits cAMP formation, the ability of test molecules to modulate 5-HT1A response was measured via changes in the levels of cAMP produced due to application of 4 μM forskolin. […] Briefly, +5-HT1A cells were seeded on 1-6 columns and base −5-HT1A cells were seeded on columns 7-12 of the white walled clear bottom 96-well plate (Corning, #3903). Both cells were seeded at the density of 30,000 cells/well in 100 μl complete growth media and cultured 24 hrs in humidified incubator at 37° C. and 5% CO2. On the experiment day, the media of cells was replaced with serum/antibiotic free culture media. […] Forskolin induced cAMP formation whereas IBMX and RO 20-1724 inhibited the degradation of cAMP. PKA was added to the lysate, mixed, and subsequently the substrate of the PKA was added. PKA was activated by cAMP, and the amount of ATP consumed due to PKA phosphorylation directly corresponded to cAMP levels in the lysate.

T1 sequence (P28223 whole entry): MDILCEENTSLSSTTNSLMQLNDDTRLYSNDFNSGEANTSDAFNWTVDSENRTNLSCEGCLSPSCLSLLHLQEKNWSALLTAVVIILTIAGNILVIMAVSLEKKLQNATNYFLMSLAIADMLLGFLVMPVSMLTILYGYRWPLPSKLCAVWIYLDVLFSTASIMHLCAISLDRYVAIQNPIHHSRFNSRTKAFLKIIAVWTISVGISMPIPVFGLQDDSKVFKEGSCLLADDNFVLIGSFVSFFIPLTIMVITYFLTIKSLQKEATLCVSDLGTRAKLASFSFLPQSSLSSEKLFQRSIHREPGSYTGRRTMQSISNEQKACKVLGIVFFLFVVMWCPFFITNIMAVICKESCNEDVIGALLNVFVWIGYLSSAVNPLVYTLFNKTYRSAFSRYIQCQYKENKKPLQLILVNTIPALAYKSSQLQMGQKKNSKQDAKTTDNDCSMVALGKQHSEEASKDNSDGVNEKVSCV

## COc1cc(CCN)cc(OC)c1OC [mescaline]
[1]; literature values signifying mild or 'loose' binding profiles
  Ki values for 5-HT2A (in words): micromolar range

## CNC(C)Cc1ccc2c(c1)OCO2 (centres unmarked) [MDMA]
[1]
  Ki values for 5-HT2A (in words): micromolar range

## CC(=O)NCCc1c[nH]c2cc(F)cc(N)c12 [(IX)]
[2]; fixed 1 nM [3H]ketanserin, test compound 3 nM to 1 mM, FIG. 15D
  specific binding in competition with [3H]ketanserin for 5-HT2A sites (competition not complete): ~50%
[3]
  % cAMP in +5HT1A compared to −5HT1A cultures as dosages increase: no significant difference

## NCCc1c[nH]c2ccc(O)cc12 [serotonin]
[3]
  % cAMP in +5HT1A compared to −5HT1A cultures as dosages increase: decreased % cAMP

## CN(C)CCc1c[nH]c2cccc(O)c12 [psilocin]
[2]; fixed 1 nM [3H]ketanserin
  competition binding curve result at 5-HT2A receptor (binding / no binding): binding
[3]
  % cAMP in +5HT1A compared to −5HT1A cultures as dosages increase: decreased % cAMP

## N[C@@H](Cc1c[nH]c2ccccc12)C(=O)O [tryptophan]
[2]; fixed 1 nM [3H]ketanserin
  competition binding curve result at 5-HT2A receptor (binding / no binding): no binding
[3]
  % cAMP in +5HT1A compared to −5HT1A cultures as dosages increase: no significant difference

## CC(=O)NCCc1c[nH]c2cc(NC(C)=O)cc(F)c12 [(X)]
[2]; [3H]ketanserin competition, FIG. 16B, indicates comparatively 'loose' binding
  Ki value at 5-HT2A compared with that of psilocin (in words): relatively high
[3]
  % cAMP in +5HT1A compared to −5HT1A cultures as dosages increase: no significant difference
